Experimental data taken from patent publication US20200163984A1, “USE OF ISOVALERYL SPIRAMYCIN I, II AND/OR III IN MANUFACTURING MEDICAMENT FOR TREATING AND/OR PREVENTING TUMOR, AND MEDICAMENT” (SHENYANG FUYANG PHARMACEUTICAL TECHNOLOGY CO., LTD., priority 2017, published 2020).

Assays:
[1] = Thymus index and spleen index of H22 liver cancer tumor-bearing mice
Method: In the H22 liver cancer model, the mice inoculated with the tumor were randomly divided into groups with 10 mice in each group on the next day of inoculation. The groups included: a model control group, a positive drug cyclophosphamide control group (CTX, 26 mg/kg), isovaleryl spiramycin I groups with doses of 13, 26 and 52 mg/kg; isovaleryl spiramycin II groups with doses of 13, 26 and 52 mg/kg; isovaleryl spiramycin III groups with doses of 13, 26 and 52 mg/kg. Each group was continuously administered intragastrically for 7 days with a dose of 20 ml/kg.

[2] = tested on: transplanted tumor of human thyroid cancer cell TPC-1; test: TPC-1 transplanted tumor in nude mice; conditions: for Tumor Volume (mm3) (d30): d 30
Method: (§1) Then cell concentration was adjusted to 1×10^7/ml with matrigel, then each nude mouse was inoculated subcutaneously with 0.2 ml of cells at its right armpit and recorded as the first day of inoculation. When the tumor grows to be greater than or equal to 100 mm^3, the mice were randomly divided into 11 groups with 6 mice in each group: isovaleryl spiramycin I groups with doses of 25, 50 and 100 mg/kg, isovaleryl spiramycin II groups with doses of 25, 50 and 100 mg/kg, and isovaleryl spiramycin III groups with doses of 25, 50 and 100 mg/kg. Each group was continuously administered intragastrically for 30 days with a dose of 20 ml/kg. The mice were sacrificed the next day after drug withdrawal and the indicators were tested. The long diameter and short diameter of the tumor, and the body weight of each mouse were recorded every 3 days from drug administration to nude mouse sacrifice.
(§2) The body weight of the nude mice and the long diameter (a) and short diameter (b) of the transplanted tumor were measured every 3 days, and the tumor volume (v), relative tumor volume (RTV) and relative tumor proliferation rate (T/C) are calculated respectively according to the following formulas, wherein V=a×b^2/2; RTV=V/V0 (V0 is the tumor volume before administration, V is the tumor volume before sacrifice), and T/C (%)=treatment group RTV/model control group RTV×100%.
(§3) Each mouse was weighed and sacrificed. After the tumor was completely stripped off from the body of the mouse, the non-tumor tissues such as blood stains and fat were removed to weigh the tumor and calculate the tumor growth inhibition rate. The average tumor weight of each group of mice is used as an indicator of efficacy. Tumor growth inhibition rate (%)=(1−the average tumor weight of the treatment group/the average tumor weight of the model group)×100%.

[3] = tested on: transplanted tumor of human renal cell adenocarcinoma cell 769-P; test: 769-P transplanted tumor in nude mice; conditions: for Tumor Volume (mm3) (d 1): d1
Method: as §1, with “group: a model group, a cyclophosphamide group,” for “group:”, “the” for “the body”
as §2, §3

[4] = tested on: transplanted tumor of human large cell lung cancer H460 cells; test: H460 transplanted tumor in nude mice
Method: as §1, §2, §3

[5] = TPC-1, high dose (100 mg/kg in method) i.g. 30 days
[6] = TPC-1, low dose (25 mg/kg in method) i.g. 30 days
[7] = TPC-1, medium dose (50 mg/kg in method) i.g. 30 days
[8] = 769-P, high dose (100 mg/kg in method) i.g. 30 days
[9] = 769-P, low dose (25 mg/kg in method) i.g. 30 days
[10] = 769-P, medium dose (50 mg/kg in method) i.g. 30 days
[11] = H460, 25 mg/kg (low dose) i.g. 30 days
[12] = H460, 50 mg/kg (medium dose) i.g. 30 days
[13] = H460, 100 mg/kg (high dose) i.g. 30 days

In the case of CO[C@@H]1[C@@H](O[C@@H]2O[C@H](C)[C@@H](O[C@H]3C[C@@](C)(O)[C@@H](OC(=O)CC(C)C)[C@H](C)O3)[C@H](N(C)C)[C@H]2O)[C@@H](CC=O)C[C@@H](C)[C@@H](O[C@H]2CC[C@H](N(C)C)[C@@H](C)O2)/C=C/C=C/C[C@@H](C)OC(=O)C[C@H]1O [Isovaleryl spiramycin I, isovaleryl spiramycin I], the “Spleen Index (%)” value ([1]; dose 13 mg/kg) is reported as 0.72 ± 0.07%, the “Thymus Index (%)” value ([1]; dose 13 mg/kg) is reported as 0.15 ± 0.07% and the “Spleen Index (%)” value ([1]; dose 26 mg/kg) is reported as 0.60 ± 0.15%. The “Thymus Index (%)” value ([1]; dose 26 mg/kg) was 0.14 ± 0.01%, the “Spleen Index (%)” value ([1]; dose 52 mg/kg) was 0.86 ± 0.25 % and the “Thymus Index (%)” value ([1]; dose 52 mg/kg) was 0.12 ± 0.04%. For the same compound, the “Relative Tumor Proliferation Rate (T/C)” value [2, 5] was 28.11%, the “tumor growth inhibition rate” value [2, 5] was 67.49% and the “Relative Tumor Proliferation Rate (T/C)” value [2, 6] was 65.45%. For the same compound, the “tumor growth inhibition rate” value [2, 6] was 23.88%, the “tumor volume and relative tumor volume compared with the model group” value (shortened to “tumor volume and relative tumor volume”) ([2]; TPC-1, low, medium and high doses, P<0.05) was “significantly lower” and the “Relative Tumor Proliferation Rate (T/C)” value [2, 7] was 43.43%. For the same compound, the “tumor growth inhibition rate” value [2, 7] was 57.28%, the “Inhibition Rate (%)” value ([2]; dose 25 mg/kg) was 23.88% and the “Relative Tumor Proliferation Rate (T/C)” value ([2]; dose 25 mg/kg) was 65.45%. The “Relative Tumor Volume (RTV)” value ([2]; dose 25 mg/kg) was 10.77 ± 2.47, the “Tumor Weight” value ([2]; dose 25 mg/kg) was 1.84 ± 0.25 g and the “Tumor Volume (mm3) (d 1)” value ([2]; dose 25 mg/kg) was 115.05 ± 9.93 mm3. For the same compound, the “Tumor Volume (mm3) (d30)” value ([2]; dose 25 mg/kg) was 1249.28 ± 337.45 mm3, the “Inhibition Rate (%)” value ([2]; dose 50 mg/kg) was 57.28% and the “Relative Tumor Proliferation Rate (T/C)” value ([2]; dose 50 mg/kg) was 43.43%. The “Relative Tumor Volume (RTV)” value ([2]; dose 50 mg/kg) was 7.15 ± 3.19, the “Tumor Weight” value ([2]; dose 50 mg/kg) was 1.03 ± 0.44 g and the “Tumor Volume (mm3) (d 1)” value ([2]; dose 50 mg/kg) was 119.45 ± 4.30 mm3. For the same compound, the “Tumor Volume (mm3) (d30)” value ([2]; dose 50 mg/kg) was 847.07 ± 356.87 mm3, the “Inhibition Rate (%)” value ([2]; dose 100 mg/kg) was 67.49% and the “Relative Tumor Proliferation Rate (T/C)” value ([2]; dose 100 mg/kg) was 28.11%. The “Relative Tumor Volume (RTV)” value ([2]; dose 100 mg/kg) was 4.63 ± 3.34, the “Tumor Weight” value ([2]; dose 100 mg/kg) was 0.79 ± 0.43 g and the “Tumor Volume (mm3) (d 1)” value ([2]; dose 100 mg/kg) was 112.69 ± 11.49 mm3. The “Tumor Volume (mm3) (d30)” value ([2]; dose 100 mg/kg) was 490.15 ± 322.14 mm3, the “mouse weight compared with the model group” value ([2]; mouse, in vivo) was “no significant changes” and the “Body Weight (g) (d1)” value ([2]; mouse, in vivo, 25 mg/kg) was 21.75 ± 1.23 g. The “Body Weight (g) (d30)” value ([2]; mouse, in vivo, 25 mg/kg) was 24.41 ± 1.32 g, the “Body Weight (g) (d1)” value ([2]; mouse, in vivo, 50 mg/kg) was 21.53 ± 1.43 g and the “Body Weight (g) (d30)” value ([2]; mouse, in vivo, 50 mg/kg) was 25.77 ± 1.10 g. For the same compound, the “Body Weight (g) (d1)” value ([2]; mouse, in vivo, 100 mg/kg) was 21.76 ± 1.08 g, the “Body Weight (g) (d30)” value ([2]; mouse, in vivo, 100 mg/kg) was 24.12 ± 1.20 g and the “Inhibition Rate (%)” value ([3]; 769-P nude mice, 25 mg/kg) was 33.68%. The “Relative Tumor Proliferation Rate (T/C)” value ([3]; 769-P nude mice, 25 mg/kg) was 75.78%, the “Relative Tumor Volume (RTV)” value ([3]; 769-P nude mice, 25 mg/kg) was 13.99 ± 3.52 and the “Tumor Weight” value ([3]; 769-P nude mice, 25 mg/kg) was 1.37 ± 0.55 g. For the same compound, the “Tumor Volume (mm3) (d 1)” value ([3]; 769-P nude mice, 25 mg/kg) was 106.47 ± 6.86 mm3, the “Tumor Volume (mm3) (d30)” value ([3]; 769-P nude mice, 25 mg/kg) was 1489.03 ± 450.17 mm3 and the “Inhibition Rate (%)” value ([3]; 769-P nude mice, 50 mg/kg) was 47.33%. For the same compound, the “Relative Tumor Proliferation Rate (T/C)” value ([3]; 769-P nude mice, 50 mg/kg) was 57.12%, the “Relative Tumor Volume (RTV)” value ([3]; 769-P nude mice, 50 mg/kg) was 10.54 ± 2.65 and the “Tumor Weight” value ([3]; 769-P nude mice, 50 mg/kg) was 1.09 ± 0.48 g. The “Tumor Volume (mm3) (d 1)” value ([3]; 769-P nude mice, 50 mg/kg) was 96.82 ± 8.51 mm3, the “Tumor Volume (mm3) (d30)” value ([3]; 769-P nude mice, 50 mg/kg) was 1020.75 ± 282.92 mm3 and the “Inhibition Rate (%)” value ([3]; 769-P nude mice, 100 mg/kg) was 68.82%. The “Relative Tumor Proliferation Rate (T/C)” value ([3]; 769-P nude mice, 100 mg/kg) was 36.88%, the “Relative Tumor Volume (RTV)” value ([3]; 769-P nude mice, 100 mg/kg) was 6.81 ± 0.30 and the “Tumor Weight” value ([3]; 769-P nude mice, 100 mg/kg) was 0.64 ± 0.01 g. For the same compound, the “Tumor Volume (mm3) (d 1)” value ([3]; 769-P nude mice, 100 mg/kg) was 103.26 ± 9.71 mm3, the “Tumor Volume (mm3) (d30)” value ([3]; 769-P nude mice, 100 mg/kg) was 702.74 ± 37.66 mm3 and the “Relative Tumor Proliferation Rate (T/C)” value [3, 8] was 36.88%. The “tumor growth inhibition rate” value [3, 8] was 68.82%, the “Relative Tumor Proliferation Rate (T/C)” value [3, 9] was 75.78% and the “tumor growth inhibition rate” value [3, 9] was 33.68%. For the same compound, the “tumor volume and relative tumor volume” value ([3]; 769-P, low, medium and high doses, P<0.05) was “significantly lower”, the “Relative Tumor Proliferation Rate (T/C)” value [3, 10] was 57.12% and the “tumor growth inhibition rate” value [3, 10] was 47.33%. For the same compound, the “mouse weight compared with the model group” value ([3]; mouse, in vivo) was “no significant changes”, the “Body Weight (g) (d1)” value ([3]; mouse, in vivo, 25 mg/kg) was 21.44 ± 1.45 g and the “Body Weight (g) (d30)” value ([3]; mouse, in vivo, 25 mg/kg) was 21.87 ± 0.89 g. The “Body Weight (g) (d1)” value ([3]; mouse, in vivo, 50 mg/kg) was 21.79 ± 1.37 g, the “Body Weight (g) (d30)” value ([3]; mouse, in vivo, 50 mg/kg) was 22.00 ± 0.94 g and the “Body Weight (g) (d1)” value ([3]; mouse, in vivo, 100 mg/kg) was 21.39 ± 1.24 g. The “Body Weight (g) (d30)” value ([3]; mouse, in vivo, 100 mg/kg) was 21.88 ± 0.54 g, the “Inhibition Rate (tumor growth inhibition rate)” value [4, 11] was 20.70% and the “Relative Tumor Proliferation Rate (T/C)” value [4, 11] was 56.56%. For the same compound, the “Relative Tumor Volume (RTV)” value [4, 11] was 5.94 ± 2.02, the “Tumor Volume (d 1)” value [4, 11] was 148.20 ± 15.93 mm3 and the “Tumor Volume (d 30)” value [4, 11] was 889.44 ± 343.94 mm3. For the same compound, the “Tumor Weight” value [4, 11] was 1.37 ± 0.13 g, the “Inhibition Rate (tumor growth inhibition rate)” value [4, 12] was 46.33% and the “Relative Tumor Proliferation Rate (T/C)” value [4, 12] was 49.00%. For the same compound, the “Relative Tumor Volume (RTV)” value [4, 12] was 5.15 ± 2.25, the “Tumor Volume (d 1)” value [4, 12] was 148.51 ± 17.68 mm3 and the “Tumor Volume (d 30)” value [4, 12] was 753.94 ± 306.82 mm3. The “Tumor Weight” value [4, 12] was 0.93 ± 0.18 g, the “Inhibition Rate (tumor growth inhibition rate)” value [4, 13] was 70.11% and the “Relative Tumor Proliferation Rate (T/C)” value [4, 13] was 31.96%. The “Relative Tumor Volume (RTV)” value [4, 13] was 3.36 ± 0.85, the “Tumor Volume (d 1)” value [4, 13] was 145.08 ± 19.59 mm3 and the “Tumor Volume (d 30)” value [4, 13] was 477.54 ± 89.21 mm3. For the same compound, the “Tumor Weight” value [4, 13] was 0.52 ± 0.07 g, the “tumor volume and relative tumor volume” value ([4]; H460, low, medium and high doses, P<0.05) was “significantly lower” and the “mouse weight compared with the model group” value ([4]; mouse, in vivo) was “no significant changes”.
